Measurements: publication PMC9127232, “Wound Healing Properties of Jasione montana Extracts and Their Main Secondary Metabolites” (Frontiers in Pharmacology, 2022)
Entries after “also recorded” stand apart in the source; their conditions may differ.

Assays:
[1] = target: porcine pancreatic elastase (Sus scrofa, UniProt P00772); test: Elastase inhibitory activity; assay type: biochemical; conditions: for anti-elastase activity (in words): extracts 100–600 μg/mL, compounds 10–200 μg/mL
Experimental: The measurement of elastase inhibition was modified slightly according to a previous method ([Wittenauer et al., 2015]). The procedure was performed in 100 mM Tris buffer (pH = 8.0). Briefly, 100 µL of extracts (JM1–JM6) (100–600 μg/mL) or compounds (9, 12, and 22) (10–200 μg/mL) and 100 µL of Tris buffer were mixed with 25 µL of porcine pancreatic elastase solution (0.05 mg/mL). Then, the mixtures were preincubated at 25°C for 5 min, and 70 µL of AAAPVN (0.4 mg/mL) was added. After another 15 min of incubation, the release of p-nitroaniline was monitored at 410 nm using a microplate reader. A blank solution was prepared by using buffer instead of sample solution. […] The calculations were performed as follows: ElInh(% )=(C-S)/C×100% where C is the negative control and S is the sample.

[2] = test system: collagen type I in fibroblast cells (PCS-201-012); test: Collagen type I biosynthesis by flow cytometry; assay type: cell-based, human; conditions: for collagen type I content, median fluorescence intensity (MFI): 300 μg/mL, 24 h, control 1,507 ± 9.2
Experimental: The normal human dermal fibroblast cell line (PCS-201-012) was cultured in DMEM blended with 10% fetal bovine serum (FBS), 10 μg/mL streptomycin, and 10 units/mol penicillin. The cells were cultured in 5% CO2 and fully humidified at 37°C. All tested compounds were dissolved at a final vehicle (DMSO) concentration of not more than 0.5% (v/v). Cells cultured in drug-free DMEM were used as controls, and cells treated with DMSO alone were used as solvent controls. All extracts (JM1–JM6) and the main components of the tested extracts (9, 12, and 22) were analyzed at the following concentrations: 10, 25, 50, 100, 200, and 300 μg/mL. The effect of the tested extracts and fractions (JM1–JM6), as well as their main compounds (9, 12, and 22) on collagen type I biosynthesis was determined using a method of cytometric staining of the surface anti-collagen type I according to the manufacturer’s protocols. Fibroblasts were incubated for 24 h at 37°C with the test samples at concentrations of 10, 25, 50, 100, 200, and 300 μg/mL. Allantoin (50 μg/mL) was used as a positive control. After incubation, fibroblasts were washed with PBS, trypsinized, resuspended in DMEM and centrifuged (1,200 rpm, 10 min, 4°C). The supernatant was removed, and the cells were washed with 2 mL of stain buffer. Then, the cells were incubated for 30 min on ice with 100 µL of stain buffer and 1 µL of antibody. After complete incubation, 2 mL of stain buffer was added. After consecutive centrifugation (1,200 rpm, 10 min, 4°C), the supernatant was removed, the cells were resuspended in 300 µL of buffer and then immediately subjected to analysis on a flow cytometer (BD FACSCanto II flow cytometer, San Jose, CA, United States) calibrated with BD Cytometer Setup and Tracking beads (BD Biosciences, San Diego, CA, United States). The median fluorescence intensity was calculated using FACSDiva software (BD Biosciences Systems, San Jose, CA, United States) and analyzed by FCS Express 7 software (DeNovo Software, Pasadena, CA, United States).

dermal fibroblast cells = test system: dermal fibroblast cells; set-up: method as in Juszczak et al., 2021; conditions: ref Juszczak et al., 2021; cited from earlier work
[3] = test system: IL-1β in fibroblast cells (PCS-201-012); test: Cytometric Bead Array, IL-1β secretion; assay type: cell-based, human; conditions: for IL-1β: BSR = below the standard range (lower than detection limit)
Experimental: The normal human dermal fibroblast cell line (PCS-201-012) was cultured in DMEM blended with 10% fetal bovine serum (FBS), 10 μg/mL streptomycin, and 10 units/mol penicillin. The cells were cultured in 5% CO2 and fully humidified at 37°C. All tested compounds were dissolved at a final vehicle (DMSO) concentration of not more than 0.5% (v/v). Cells cultured in drug-free DMEM were used as controls, and cells treated with DMSO alone were used as solvent controls. All extracts (JM1–JM6) and the main components of the tested extracts (9, 12, and 22) were analyzed at the following concentrations: 10, 25, 50, 100, 200, and 300 μg/mL. The effect of the tested extracts and fractions (JM1–JM6) as well as 9, 12, and 22 on cytokine (IL-1β, IL-6 IL-8, IL-10, IL-12p70 and TNF) secretion was determined using the Cytometric Bead Array (CBA) Human Inflammatory Cytokine Kit according to the manufacturer’s protocols. After 24 h of incubation with the test samples at concentrations of 10, 25, 50, 100, 200, and 300 μg/mL, fibroblast cells were washed with PBS, trypsinized, resuspended in DMEM and centrifuged (1,200 rpm, 10 min, 4°C). The supernatant was then replaced with 50 μL of assay diluent with the addition of 50 μL of assay beads and 50 μL of PE-labeled antibodies (detection reagent) from the human inflammatory cytokine kit. Incubation was performed for 3 h at room temperature without daylight, after which the fibroblast cells were washed and centrifuged (1,200 rpm, 5 min, 4°C). The cell pellet was resuspended in 300 μL of wash buffer and then immediately subjected to analysis by FCAP Array v3 software on a BD FACSCanto II flow cytometer (both from BD Biosciences Systems, San Jose, CA, United States) calibrated with BD Cytometer Setup and Tracking beads (BD Biosciences, San Diego, CA, United States).

Sequence of porcine pancreatic elastase (P00772 27-266): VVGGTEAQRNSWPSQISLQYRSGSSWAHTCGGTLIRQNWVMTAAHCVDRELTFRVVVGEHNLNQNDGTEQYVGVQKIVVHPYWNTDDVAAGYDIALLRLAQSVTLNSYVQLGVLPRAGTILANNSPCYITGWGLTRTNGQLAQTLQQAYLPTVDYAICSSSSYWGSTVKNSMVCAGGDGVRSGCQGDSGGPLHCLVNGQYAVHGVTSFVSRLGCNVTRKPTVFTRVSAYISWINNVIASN

SMILES | anti-elastase activity (in words) [1] | collagen type I content, median fluorescence intensity (MFI) [2] | cytotoxicity on dermal fibroblast cells (in words) (dermal fibroblast cells) | IC50 ([1]; Tris buffer pH 8.0, substrate AAAPVN, 410 nm) | collagen content in fibroblast cells (in words) ([2]; 10 μg/mL) | IL-1β level ([3]; 100 μg/mL, 24 h, control 13.4 ± 5.6 pg/mL) | IL-1β ([3]; 200 μg/mL) | IL-1β ([3]; 300 μg/mL) | IL-1β expression (in words) ([3]; 200–300 μg/mL, 24 h) | secretion of IL-1β (in words) ([3]; all tested concentrations 10–300 μg/mL, 24 h)
O=c1cc(-c2ccc(O)c(O)c2)oc2cc(O[C@@H]3O[C@H](CO)[C@@H](O)[C@H](O)[C@H]3O[C@@H]3OC[C@@H](O)[C@H](O)[C@H]3O)cc(O)c12 [Compound 9, luteolin 7-O-β-D-xylosyl-(1-2)-β-D-glucoside] | no significant inhibitory activity; also recorded: not active | 1763 ± 58 | – | – | – | – | – | – | – | –
O=c1cc(-c2ccc(O)c(O)c2)oc2cc(O[C@@H]3O[C@H](CO)[C@@H](O)[C@H](O)[C@H]3O)cc(O)c12 [Compound 12, luteolin 7-O-β-D-glucoside] | no significant inhibitory activity; also recorded: not active | 1717 ± 10.6 | did not show strong cytotoxicity | – | – | – | – | – | – | –
O=c1cc(-c2ccc(O)c(O)c2)oc2cc(O)cc(O)c12 [Compound 22, 5,7,3',4'-tetrahydroxyflavone] | – | – | toxicity at the higher concentrations tested | 139 µM | decrease in collagen content | 1.7 ± 1.1 pg/mL | BSR | BSR | below the sensitivity of the method | highest decrease
